# Assay results from patent publication US9676771B2, “Compounds for inhibiting drug-resistant strains of HIV-1 integrase” (priority 2013, dated 2017).
# Like-named read-outs stand apart in the source and are kept apart here.
# Legend:
# HIV-1 integrase = HIV-1 integrase (Human immunodeficiency virus type 1 group M subtype B, UniProt P12497); experiment: biochemical; format: biochemical
# Method in brief: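 Compounds or DMSO added to 20 nM DNA and 400 nM integrase in 50 mM MOPS pH 7.2, 7.5 mM MgCl2, 14 mM 2-mercaptoethanol; 2 h at 37° C, quenched with formamide/SDS loading buffer. Products resolved on gels, imaged and quantified by densitometry.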
# [1] = tested on: HIV-1 constructs containing mutant IN R263K; experiment: Single-round HIV-1 infectivity assay, IN mutant R263K; format: cell-based; conditions: Human immunodeficiency virus 1
# Procedure: (§1) Single-Round HIV-1 Infectivity Assay.
# (§2) Human embryonyl kidney cell culture cell line 293 was acquired from the American type Culture Collection (ATCC).
# (§3) […]. […] The virus-containing supernatants were then harvested, clarified by low-speed centrifugation, filtrated, and diluted for preparation in infection assays. […] After compound incorporation and activation in the cell, 100 μL of virus-stock diluted to achieve a maximum luciferase signal between 0.2 and 1.5 RLUs was added to each well and further incubated at 37° C. for 48 hrs. […] Activity was normalized to infectivity in the absence of target compounds. KaleidaGraph (Synergy Software, Reading, Pa.) was used to perform regression analysis on the data. EC50 values were determined from the fit model.
# (§4) pNLNgoMIVR^−ΔEnv.LUC has been described previously (Zhao et al. 2008). The integrase codon reading frame was removed from pNLNgoMIVR^−ΔEnv LUC (between KpnI and SalI sites) and placed between the KpnI and SalI sites of pBluescript II KS+. Using that construct as the wild-type template, we prepared the following HIV-1 Integrase-resistant mutants via the QuikChange II XL (Stratagene, La Jolla, Calif.) site-directed mutagenesis protocol: H51Y, T66I, E92Q, G118R, Y143R, Q148H, Q148K, N155H, R263K, G140S+Q148H, G140A+Q148K, E138K+Q148K, and H51Y+R263K. The following sense with cognate antisense (not shown) oligonucleotides (Integrated DNA Technologies, Coralville, Iowa) were used in the mutagenesis: H51Y, 5′-[…]-3; T66I, 5′-[…]-3′; E92Q, 5′-[…]-3′; G118R, 5′-[…]-3′; E138K, 5′-[…]-3; G140A, 5′-[…]-3; G140S, 5′-[…]-3′; Y143R, 5′-[…]-3′; Q148H, 5′-[…]-3′; Q148K, 5′-[…]-3; N155H, 5′-[…]-3′; R263K 5′-[…]-3′. The double mutation G140S+Q148H was constructed by using the previously generated Q148H mutant and the appropriate oligonucleotide for the 2nd mutation, G140S. The double mutation G140A+Q148K was made by using the Q148K mutant and the appropriate oligonucleotide for the 2nd mutation, G140A. The double mutation E138K+Q148K was made by using the Q148K mutant and the appropriate oligonucleotide for the 2nd mutation, E138K. The double mutation H51Y+R263K was constructed by using the previously generated H51Y mutant and the appropriate oligonucleotides for the 2nd mutation, R263K. The DNA sequence of each construct was verified independently by DNA sequence determination. The mutant integrase coding sequences from pBluescript II KS+ were then subcloned into pNLNgoMIVR^−ΔEnv LUC (between the KpnI and SalI sites) to produce the full-length mutant HIV-1 Integrase constructs. These DNA sequences were additionally checked independently by DNA sequence determination.
# [2] = tested on: HIV-1 constructs containing wild-type IN; experiment: microbe, parasite or virus in culture; format: cell-based
# HIV-1 WT IN = experiment: High growth serum assays in cells (WT); format: cell-based
# [3] = tested on: HIV-1 constructs containing mutant IN H51Y; experiment: Single-round HIV-1 infectivity assay, IN mutant H51Y; format: cell-based; conditions: Human immunodeficiency virus 1; Table 8; read-out: EC50 (nM, IN mutants) H51Y
# Procedure: as §1, §2, §3, §4
# [4] = tested on: HIV-1 constructs containing mutant IN T66I; experiment: Single-round HIV-1 infectivity assay, IN mutant T66I; format: cell-based; conditions: Human immunodeficiency virus 1; Table 8; read-out: EC50 (nM, IN mutants) T66I
# Procedure: as §1, §2, §3, §4
# [5] = tested on: HIV-1 constructs containing mutant IN H51Y/R263K; experiment: Single-round HIV-1 infectivity assay, IN double mutant H51Y/R263K; format: cell-based; conditions: Human immunodeficiency virus 1; Table 8; read-out: EC50 (nM, IN mutants) H51Y/R263K
# Procedure: as §1, §2, §3, §4
# [6] = tested on: HIV-1 constructs containing mutant IN E92Q; experiment: Single-round HIV-1 infectivity assay, IN mutant E92Q; format: cell-based; conditions: Human immunodeficiency virus 1; Table 8; read-out: EC50 (nM, IN mutants) E92Q
# Procedure: as §1, §2, §3, §4
# [7] = tested on: HIV-1 constructs containing mutant IN E138K-Q148K; experiment: Single-round HIV-1 infectivity assay, IN double mutant E138K-Q148K; format: cell-based
# Procedure: as §1, §2, §3
# pNLNgoMIVR^−ΔEnv.LUC has been described previously (Zhao et al. 2008). The integrase codon reading frame was removed from pNLNgoMIVR^−ΔEnv LUC (between KpnI and SalI sites) and placed between the KpnI and SalI sites of pBluescript II KS+. Using that construct as the wild-type template, we prepared the following HIV-1 Integrase-resistant mutants via the QuikChange II XL (Stratagene, La Jolla, Calif.) site-directed mutagenesis protocol: H51Y, T66I, E92Q, G118R, Y143R, Q148H, Q148K, N155H, R263K, G140S+Q148H, G140A+Q148K, E138K+Q148K, and H51Y+R263K. […]
# [8] = Table 4, 3′-processing, read-out: IC50 (3^+-Processing)
# [9] = Table 4, strand transfer, read-out: IC50 (Strand Transfer)
# [10] = Table 6, read-out: EC50 (nM, IN Mutants) R263K
# [11] = Human immunodeficiency virus 1, read-out: EC50 (nM), Table 9, WT, normal 5% serum
# [12] = Human immunodeficiency virus 1, Table 3, WT IN, read-out: EC50 (nM, WT)
# [13] = Human immunodeficiency virus 1, read-out: EC50 (nM), Table 9, 10% FBS
# [14] = Human immunodeficiency virus 1, read-out: EC50 (nM), Table 9, 15% FBS
# [15] = Table 7, 3′-processing, read-out: IC50 (μM) 3′-P
# [16] = Table 7, strand transfer, read-out: IC50 (μM) ST
# [17] = Table 8, read-out: EC50 (nM, IN mutants) R263K
# [18] = Human immunodeficiency virus 1, Table 8, WT IN, read-out: EC50 (nM, WT)
# [19] = Table 10, strand transfer, read-out: IC50 (nM, ST)
SMILES,"EC50 [2, 11]",EC50 (HIV-1 WT IN; [13]),EC50 (HIV-1 WT IN; [14]),IC50 (HIV-1 integrase; [15]),IC50 (HIV-1 integrase; [16]),EC50 [3],EC50 [4],"EC50 [1, 17]",EC50 [5],"EC50 [2, 18]",EC50 [6],other results
"CC(=O)OCCNc1c(C(=O)NCc2ccc(F)cc2F)c(=O)n(O)c2ncccc12 [XZ402, 2-((3-((2,4-difluorobenzyl)carbamoyl)-1-hydroxy-2-oxo-1,2-dihydro-1,8-naphthyridin-4-yl)amino)ethyl acetate]",4.5 ± 1.5 nM,2.2 ± 0.3 nM,1 nM,–,–,–,–,–,–,–,–,"IC50 (HIV-1 integrase; [8]): 5.3 ± 0.5 µM; IC50 (HIV-1 integrase; [9]): 0.027 ± 0.006 µM; EC50 [1, 10]: 16 ± 5.1 nM; EC50 [2, 12]: 4.5 ± 1.5 nM; Si (selectivity index) ([2]; Table 3, ratio of CC50 to EC50): >25,000"
"Nc1c(C(=O)NCc2ccc(F)cc2F)c(=O)n(O)c2ncc(CCCCCCO)cc12 [XZ426, 4-Amino-N-(2,4-difluorobenzyl)-1-hydroxy-6-(6-hydroxyhexyl)-2-oxo-1,2-dihydro-1,8-naphthyridine-3-carboxamide]",2.3 ± 0.6 nM,0.8 ± 0.2 nM,–,19 ± 1 µM,0.00059 ± 0.00011 µM,1.6 nM,0.5 nM,8.4 nM,5.2 nM,2.33 nM,0.74 nM,–
"COC(=O)CNc1c(C(=O)NCc2ccc(F)cc2F)c(=O)n(O)c2ncccc12 [XZ379, Methyl 2-((3-((2,4-difluorobenzyl)carbamoyl)-1-hydroxy-2-oxo-1,2-dihydro-1,8-naphthyridin-4-yl)amino)acetate]",3.8 ± 1.2 nM,5 nM,1 nM,–,–,–,–,–,–,–,–,"IC50 (HIV-1 integrase; [8]): 0.71 ± 0.1 µM; IC50 (HIV-1 integrase; [9]): 0.021 ± 0.011 µM; EC50 [1, 10]: 25.9 ± 8.2 nM; EC50 [2, 12]: 3.8 ± 1.2 nM; Si (selectivity index) ([2]; Table 3, ratio of CC50 to EC50): >25,000"
"O=C(NCc1ccc(F)cc1F)c1c(O)c2cccnc2n(O)c1=O [XZ351, N-(2,4-difluorobenzyl)-1,4-dihydroxy-2-oxo-1,2-dihydro-1,8-naphthyridine-3-carboxamide]",–,–,–,–,–,–,–,–,–,–,–,"IC50 (HIV-1 integrase; Table 1, 3′-processing, read-out: IC50 Values 3′-Processing): 1.2 ± 0.2 µM; IC50 (HIV-1 integrase; Table 1, strand transfer, read-out: IC50 Values Strand transfer): 0.055 ± 0.008 µM; Integrase Mutants KK (E138K-Q148K), fold-change in EC50 relative to WT [7]: 32 x; EC50 [1, 10]: 35.9 ± 7.6 nM; SI [2]: 22,767; Si (selectivity index) [2]: 22,032; EC50 ([2]; Human immunodeficiency virus 1, Table 2, cells infected with lentiviral vector harboring WT IN, read-out: EC50): 6 nM; EC50 [2, 12]: 6.2 ± 2.9 nM"
"COC(=O)CCc1cnc2c(c1)c(N)c(C(=O)NCc1ccc(F)cc1F)c(=O)n2O [XZ434, Methyl 3-(5-amino-6-((2,4-difluorobenzyl)carbamoyl)-8-hydroxy-7-oxo-7,8-dihydro-1,8-naphthyridin-3-yl)propanoate]",0.7 ± 0.2 nM,0.62 ± 0.2 nM,0.6 nM,2.9 ± 0.6 µM,0.0018 ± 0.0002 µM,0.63 nM,0.53 nM,0.5 nM,2.4 nM,0.67 nM,2 ± 1.1 nM,–
"O=C(NCc1ccc(F)cc1F)c1c(O)c2c(CO)ccnc2n(O)c1=O [XZ440, N-(2,4-Difluorobenzyl)-1,4-dihydroxy-5-(hydroxymethyl)-2-oxo-1,2-dihydro-1,8-naphthyridine-3-carboxamide]",–,–,–,–,–,5 nM,1.4 nM,4 ± 1.4 nM,9 ± 0.6 nM,7.3 nM,4 ± 0.6 nM,IC50 (HIV-1 integrase; [19]): 0.0145 ± 0.0008 µM
"Nc1c(C(=O)NCc2ccc(F)cc2F)c(=O)n(O)c2ncc(CCCCCO)cc12 [XZ419, 4-Amino-N-(2,4-difluorobenzyl)-1-hydroxy-6-(5-hydroxypentyl)-2-oxo-1,2-dihydro-1,8-naphthyridine-3-carboxamide]",1.3 ± 0.2 nM,0.93 ± 0.2 nM,2.1 ± 0.4 nM,8.2 ± 1.2 µM,0.0027 ± 0.0004 µM,3.8 nM,0.93 nM,2.6 nM,2.6 nM,1.3 nM,3.8 nM,–
"Nc1c(C(=O)NCc2ccc(F)cc2F)c(=O)n(O)c2ncc(CCCCCCCCO)cc12 [XZ433, 4-Amino-N-(2,4-difluorobenzyl)-1-hydroxy-6-(8-hydroxyoctyl)-2-oxo-1,2-dihydro-1,8-naphthyridine-3-carboxamide]",–,–,–,32 ± 6 µM,0.0054 ± 0.0008 µM,4.8 nM,1.7 nM,3.8 nM,22.4 nM,3.7 nM,2.6 nM,–
"COC(=O)CCc1cnc2c(c1)c(NCCO)c(C(=O)NCc1ccc(F)cc1F)c(=O)n2O [XZ438, Methyl 3-(6-((2,4-difluorobenzyl)carbamoyl)-8-hydroxy-5-((2-hydroxyethyl)amino)-7-oxo-7,8-dihydro-1,8-naphthyridin-3-yl)propanoate]",–,–,–,3.2 ± 0.3 µM,0.0031 ± 0.0003 µM,6.9 nM,0.62 nM,6.5 nM,2.5 nM,4.1 ± 1 nM,2.7 nM,–
"CC(=O)OCCCc1cnc2c(c1)c(N)c(C(=O)NCc1ccc(F)cc1F)c(=O)n2O [XZ424, 3-(5-Amino-6-((2,4-difluorobenzyl)carbamoyl)-8-hydroxy-7-oxo-7,8-dihydro-1,8-naphthyridin-3-yl)propyl acetate]",–,–,–,14.3 ± 2.1 µM,0.0102 ± 0.0016 µM,0.8 nM,0.75 nM,1.75 nM,3.9 nM,1.4 nM,1.2 nM,–
"C[C@@H]1CCO[C@H]2Cn3cc(C(=O)NCc4ccc(F)cc4F)c(=O)c(O)c3C(=O)N12 [DTG, dolutegravir, reference compound]",–,–,–,–,–,3.2 nM,0.9 nM,11.3 nM,16 nM,1.6 nM,2.3 nM,IC50 (HIV-1 integrase; [19]): 0.0124 ± 0.0026 µM
"O=C(NCc1ccc(F)cc1F)c1c(NCCO)c2cc(CCCCCO)cnc2n(O)c1=O [XZ437, N-(2,4-Difluorobenzyl)-1-hydroxy-4-((2-hydroxyethyl)amino)-6-(5-hydroxypentyl)-2-oxo-1,2-dihydro-1,8-naphthyridine-3-carboxamide]",–,–,–,4 ± 0.5 µM,0.0025 ± 0.0002 µM,10.8 nM,1.9 nM,18.1 nM,30.9 nM,13 nM,6.5 nM,–
"Nc1c(C(=O)NCc2ccc(F)cc2F)c(=O)n(O)c2ncc(CCCO)cc12 [XZ423, 4-Amino-N-(2,4-difluorobenzyl)-1-hydroxy-6-(3-hydroxypropyl)-2-oxo-1,2-dihydro-1,8-naphthyridine-3-carboxamide]",–,–,–,4.3 ± 0.6 µM,0.0113 ± 0.0027 µM,2.6 nM,1.1 nM,2.5 nM,14.7 nM,3.1 nM,4.8 ± 2 nM,–
